Assays:
[1] = tested on: Platelet aggregation (ADP, rabbit platelet rich plasma); assay: Platelet aggregation inhibition in rabbit PRP, ADP-induced, Born's turbidimetry (Experiment 1); format: cell-based; details: Oryctolagus cuniculus, 0.05 h, ADP 2 to 4 μM, 3 min incubation, read-out: Aggregation Inhibition Rate; for inhibition at 0.1 µg/mL: 10^-7 g/ml
Procedure: Blood was collected from the ear vein of rabbit, together with 1/10 volume sodium citrate. Centrifugation at 1,200 rpm for 10 minutes gave the supernatant which was made platelet rich plasma (PRP). The blood was further centrifuged at 3,000 rpm for 10 minutes to give platelet poor plasma (PPP). The platelet count of PRP was adjusted to 300,000/μl with PPP, which was provided for the test. Platelet aggregation was determined with aggregometer (HEMATRACERVI, Niko Bioscience Co.) based on Born's turbidimetry. That is, 200 μl of PRP was charged in a cell and 1 μl of a drug solution dissolved in dimethylsulfoxide was added thereto. After incubation for 3 minutes, ADP was added in a concentration of 2 to 4 μM to cause aggregation. Change in transmittance in the cell was then monitored. The results are shown in Table 2, in terms of aggregation inhibition rate which was determined by comparing a transmittance of control with that obtained at the maximum aggregation on an aggregation curve when the transmittance of PRP was made 0% and the transmittance of PPP was made 100%.

[2] = tested on: thrombocytopenia in mice (collagen-induced, platelet count); assay: Activity of preventing thrombocytopenia in mice, collagen i.v. (Experiment 3); format: in vivo, male ddY mice; details: Mus musculus, 3.0 mg/kg oral, 1 hour before collagen 0.5 mg/kg i.v., * p = 5%, ** p = 1%, *** p = 0.1%, read-out: Average Inhibition Rate (platelet count; normal mouse 100, control mouse 0)
Procedure: Activity of preventing thrombocytopenia in mice:
Collagen (Holm Co.) diluted with physiological saline was intravenously given through the vein to male ddY mice of 6 weeks old, weighing 28-31 g, which had been fasted for 4-5 hours, in a dose of 0.5 mg/kg. Five minutes after, blood was collected from the lower thigh vein under pentobarbital anesthesia through a plastic syringe treated with heparin containing 3.8% sodium citrate. The drug was orally given an hour before the collagen administration. The platelet count was measured with Sysmex E-4000. The inhibition activity is shown in terms of percentage of the platelet count when the platelet count of normal mouse was made 100 and the platelet count of control mouse was made 0.

[3] = tested on: ADP-inducing platelet aggregation; assay: Rabbit exo-vivo test, ADP-inducing platelet aggregation after oral administration (Experiment 2); format: in vivo, Japanese white rabbits
Procedure: Japanese white rabbits weighing 3.0-4.0 kg were fasted for 18 hours. A drug suspension in 2% gum arabic aqueous solution was orally given to the animal in a definite dose. Blood was collected 1 and 4 hours after. PRP was prepared in a manner similar to Experiment 1 and ADP-inducing platelet aggregation function was determined. An inhibition rate was calculated based on an aggregation rate of ADP prior to administration of the compound.

| Structure (SMILES) | inhibition at 1 µg/mL ([1]; 10^-6 g/ml) | inhibition at 0.1 µg/mL [1] | inhibition in vivo at 3 mg/kg [2] | Average Inhibition Rate ([3]; 3 mg/kg oral, 1 Hour) | Average Inhibition Rate ([3]; 3 mg/kg oral, 4 Hours) | Average Inhibition Rate ([3]; 30 mg/kg oral, 1 Hour) | Average Inhibition Rate ([3]; 30 mg/kg oral, 4 Hours) |
| --- | --- | --- | --- | --- | --- | --- | --- |
| COc1ccc(CNc2c(OCC[S+]([O-])c3ccccc3)n[nH]c(=O)c2Br)cc1OC (stereo not shown) [Compound 8, 4-bromo-5-(3,4-dimethoxyphenylmethylamino)-6-[2-(phenylsulfinyl)ethyloxy]-3(2H)-pyridazinone] | 100% | 82% | 45% | 48% | 23% | 72% | 70% |
| COc1ccc(CNc2c(OCCCc3ccccc3)n[nH]c(=O)c2Br)cc1OC [C, reference compound] | – | – | 27.4% | 20% | 23% | 36% | 35% |
| COc1ccc(CNc2c(OCC[S+]([O-])c3ccccc3Cl)n[nH]c(=O)c2Br)cc1OC (stereo not shown) [Compound 19, 4-bromo-6-[2-(2-chlorophenylsulfinyl)ethyloxy]-5-(3,4-dimethoxyphenylmethylamino)-3(2H)-pyridazinone] | – | 100% | 33.8% | – | – | – | – |
| COc1ccc(CNc2c(OCCSc3ccccc3Cl)n[nH]c(=O)c2Br)cc1OC [Compound 18] | – | 100% | 30.1% | – | – | – | – |

From patent US5604226A, “Pyridazinone derivatives, processes for production thereof and use thereof” (Nihon Nohyaku Co., Ltd., priority 1993, dated 1997)
